In ChEMBL document CHEMBL3120136 (J Med Chem, 2014):
In brackets after ≈: the same amount, converted by molar mass.

Legend:
Hepatitis C virus = assay: Antiviral activity against Hepatitis C virus infected in human HuH7 cells assessed as inhibition of HCV subgenomic replicon replication after 72 hrs by ELISA; assay type: functional, organism-based, Hepacivirus hominis, Huh-7; conditions: Hepatitis C virus, Huh-7, 72 h; read-out: EC50
[1] = Inhibition of Hepatitis C virus full-length NS3/4A protease assessed as quenched-fluorogenic RET-S1 substrate cleavage incubated for 10 mins prior to substrate addition by FRET analysis; parameters: species or system Hepacivirus hominis
[2] = Ratio of AUC (0 to 24 hrs) in liver to plasma in Sprague-Dawley rat at 30 mg/kg, po by HPLC-MS/MS analysis; assay type: ADME, organism-based; parameters: dose 30 mg/kg, route oral; conditions: Sprague-Dawley, liver and plasma, read-out: Ratio AUC
[3] = AUC (0 to 24 hrs) in Sprague-Dawley rat plasma at 30 mg/kg, po by HPLC-MS/MS analysis; assay type: ADME, organism-based; parameters: time < 24 hr, dose 30 mg/kg, route oral
[4] = AUC (0 to 24 hrs) in Sprague-Dawley rat liver at 30 mg/kg, po by HPLC-MS/MS analysis; assay type: ADME, organism-based; parameters: time < 24 hr, dose 30 mg/kg, route oral
[5] = Plasma clearance in rat assessed as extraction ratio; assay type: ADME, organism-based; conditions: read-out: ERH
[6] = Efflux ratio of permeability from basolateral to apical side over apical to basolateral side in human Caco2 cells; assay type: ADME, cell-based; conditions: Caco-2
[7] = Permeability from apical to basolateral side of human Caco2 cells; assay type: ADME, cell-based; conditions: Caco-2, read-out: permeability
[8] = Aqueous solubility of the compound at pH 6.5 by modified shake-flask method; assay type: physicochemical
[9] = Aqueous solubility of the compound at pH 7.4 by modified shake-flask method; assay type: physicochemical
[10] = Aqueous solubility of the compound at pH 1.2 by modified shake-flask method; assay type: physicochemical
[11] = Metabolic stability in dog hepatocytes assessed as extraction ratio at 1 uM; assay type: ADME, cell-based, Canis lupus familiaris, Hepatocyte; conditions: read-out: ERH
[12] = Metabolic stability in cynomolgus monkey hepatocytes assessed as extraction ratio at 1 uM; assay type: ADME, cell-based, Macaca fascicularis, Hepatocyte; conditions: read-out: ERH
[13] = Metabolic stability in human hepatocytes assessed as extraction ratio at 1 uM; assay type: ADME, cell-based, Hepatocyte; conditions: read-out: ERH
[14] = Metabolic stability in rat hepatocytes assessed as extraction ratio at 1 uM; assay type: ADME, cell-based, Hepatocyte; conditions: read-out: ERH
[15] = Lipophilicity, log D of the compound; assay type: physicochemical; conditions: octanol/water
Rattus norvegicus = assay: Volume of distribution at steady state in Sprague-Dawley rat at 1 mg/kg, iv by HPLC-MS/MS analysis; conditions: in vivo
[16] = Ratio of EC50 for Hepatitis C virus infected in human HuH7 cells to IC50 for Hepatitis C virus full-length NS3/4A protease; parameters: species or system Huh-7

Compound | EC50 (Hepatitis C virus) | IC50 [1] | Kp [2] | AUC(0-t) at 24 h [3] | AUC(0-t) at 24 h [4] | hepatic extraction ratio [5] | efflux ratio [6] | Papp A→B [7] | solubility thermodynamic [8] | solubility thermodynamic [9] | solubility thermodynamic [10] | hepatic extraction ratio at 1 µM [11] | hepatic extraction ratio at 1 µM [12] | hepatic extraction ratio at 1 µM [13] | hepatic extraction ratio at 1 µM [14] | logD [15] | Vdss (Rattus norvegicus) | Ratio [16]
CC(C)(C)OC(=O)N[C@H]1CCCCC/C=C\[C@@H]2C[C@@]2(C(=O)NS(=O)(=O)C2CC2)NC(=O)[C@@H]2C[C@@H](OC(=O)N3Cc4ccccc4C3)CN2C1=O | 2 nM | 1.2 nM | 1.2 | 32900 ng·h/mL | 40300 ng·h/mL | 0.06 | > 2 | < 2 ×10⁻⁶ cm/s | 702 µg/mL (≈ 983 µM) | > 1000 µg/mL | 0.5 µg/mL (≈ 0.7 µM) | 0.33 | 0.28 | 0.65 | 0.01 | 2.4 | 0.089 L/kg | –
CC(C)(C)OC(=O)N[C@H]1CCCCC/C=C\[C@@H]2C[C@@]2(C(=O)O)NC(=O)[C@@H]2C[C@@H](OC(=O)N3CCc4ccccc4C3)CN2C1=O | 2350 nM | 177 nM | – | – | – | – | – | – | – | – | – | – | – | – | – | – | – | 10
